Reference: ChEMBL document CHEMBL1201862, “PubChem BioAssay data set” (2004)
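In this assay, cells in 96-well plates receive the compound at five concentrations for 48 hours. Endpoints are linearly interpolated between the surrounding concentrations. GI50 is the concentration that inhibits growth by half.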 Activity calls are given as the source filed them. No stated cut-off is given here; in the data, active = GI50 up to about 1.1 µM and inactive = higher.

Columns and labels:
Assay in all cases: NCI-60 cell line screen, 48 h
[1] = system: DLD-1
[2] = system: XF498
[3] = system: DU-145
[4] = system: M19-MEL
[5] = system: BT-549
[6] = system: SNB-78
[7] = system: HOP-18
[8] = system: DMS-273

Compound | GI50 [1] | GI50 [2] | GI50 [3] | GI50 [4] | GI50 [5] | GI50 [6] | GI50 [7] | GI50 [8]
CCC1CN2CCc3cc(OC)c(OC)cc3C2CC1CC1c2cc(OC)c(OC)cc2CCN1C(=O)C(Cc1c[nH]c2ccccc12)NC(=O)OC(C)(C)C (stereo not given) | 8.39 µM (inactive) | 1.78 µM (inactive) | 2.42 µM (inactive) | 1.69 µM (inactive) | 3.36 µM (inactive) | 15.5 µM (inactive) | 4.13 µM (inactive) | 6.53 µM (inactive)
NCCCCNCCCNC(=O)c1nc(-c2csc(CCN)n2)sc1Cl | > 100 µM (inactive) | > 100 µM (inactive) |  | > 100 µM (inactive) |  | > 100 µM (inactive) |  | > 100 µM (inactive)
CN(C)C(=O)N(CCCl)N=O | > 100 µM (inactive) | > 81.1 µM (inactive) |  | > 100 µM (inactive) |  | > 100 µM (inactive) | > 100 µM (inactive) | > 100 µM (inactive)
CCCCc1nccc2c(C)c3[nH]c4ccccc4c3cc12 | 2.81 µM (inactive) |  |  | 3.1 µM (inactive) |  | 5.64 µM (inactive) | 0.486 µM (active) | 0.883 µM (active)
COC(=O)C1=C(C[S+]([O-])c2ccccc2[N+](=O)[O-])ON(C)C1c1ccccc1 (stereo not given) | 30.9 µM (inactive) | 31.1 µM (inactive) |  | 47 µM (inactive) |  | 82 µM (inactive) | 52.2 µM (inactive) | 28.1 µM (inactive)
COc1ccc(-c2ccccc2)c(N/N=C2\CCCNC2=O)c1 | > 100 µM (inactive) | 18.7 µM (inactive) |  | > 100 µM (inactive) |  | 93.5 µM (inactive) | > 100 µM (inactive) | > 100 µM (inactive)
O=C(CCc1nnc2s/c(=C\c3ccccc3Cl)c(=O)n12)Nc1cc(Cl)ccc1Cl | > 100 µM (inactive) | 70.8 µM (inactive) |  | > 100 µM (inactive) |  | > 100 µM (inactive) | > 100 µM (inactive) | 
C[n+]1c2ccccc2c(NC(CCCNC(=N)N)C(=O)O)c2ccccc21 (stereo not given) | > 100 µM (inactive) | > 100 µM (inactive) |  | > 100 µM (inactive) |  | > 100 µM (inactive) | > 100 µM (inactive) | > 100 µM (inactive)
O=C1C(Cl)=C(Cl)C(=O)N1C1C2CC3CC(C2)CC1C3 (stereo not given) | > 60.1 µM (inactive) | > 100 µM (inactive) |  | > 100 µM (inactive) |  | > 100 µM (inactive) | > 100 µM (inactive) | > 100 µM (inactive)
C1=C(c2ccccc2)SC(N2CCCCC2)S1 (stereo not given) | > 100 µM (inactive) | > 100 µM (inactive) |  | 68.1 µM (inactive) |  | > 100 µM (inactive) |  | > 100 µM (inactive)
CC1=C(O)C(=O)c2cn(C)cc2C1=O | > 100 µM (inactive) | > 100 µM (inactive) |  | > 100 µM (inactive) |  | > 100 µM (inactive) | > 100 µM (inactive) | > 100 µM (inactive)
O=S1(=O)C(=C(c2ccccc2)c2ccccc2)S(=O)(=O)c2ccccc21 | > 100 µM (inactive) | 24.7 µM (inactive) |  | > 100 µM (inactive) |  | 39.8 µM (inactive) | 51.6 µM (inactive) | > 100 µM (inactive)
O=C(O)C1c2ccccc2C(C(=O)O)c2ccccc21 (stereo not given) | > 100 µM (inactive) |  |  | > 100 µM (inactive) |  | > 100 µM (inactive) | > 100 µM (inactive) | > 100 µM (inactive)
O=c1[nH]c(=O)n([C@H]2CCCO2)cc1F | 615 µM (inactive) | 762 µM (inactive) | 748 µM (inactive) | 545 µM (inactive) | 4000 µM (inactive) | > 1000 µM (inactive) | 692 µM (inactive) | 561 µM (inactive)
Nc1ncn([C@H]2C[C@H](O)[C@@H](CO)O2)c(=O)n1 [DECITABINE] | 3.09 µM (inactive) | 25.5 µM (inactive) | 8.79 µM (inactive) | 5.86 µM (inactive) | 13.6 µM (inactive) | 373 µM (inactive) | > 99.1 µM (inactive) | 
